According to paper PMC10887214 (Biomedicines, 2024):

What was measured:
[1] = target: T1, CB2 receptor (hCB2) (Homo sapiens, UniProt P34972); test: Two-electrode voltage-clamp, CB2-GIRK1/GIRK2-RGS4 coupling system expressed in Xenopus oocytes; type: cell-based
T1 construct: expressed in transfected cells; host or cells: Xenopus laevis oocytes (cRNA injection)

[2] = test system: non-injected oocytes; test: Two-electrode voltage-clamp on non-injected oocytes; type: cell-based, Xenopus laevis; conditions: 100 μM OS, ND96
Text: Isolation of Xenopus laevis oocytes. All procedures for the use and handling of adult female Xenopus laevis frogs (CRB Xénopes, Rennes, France) were approved by the Animal Ethics Committee of the KU Leuven (Project No. P186/2019) following regulations of the European Union (EU) concerning the welfare of laboratory animals as declared in Directive 2010/63/EU. Oocytes were isolated as described previously. Stage V–VI Xenopus laevis oocytes were isolated by partial ovariectomy. The animals were anesthetized by a 15 min submersion in 0.1% tricaine methane sulfonate (Sigma-Aldrich Chemical, St. Louis, MO, USA) solution (pH 7.0). The oocytes were enzymatically defolliculated by collagenase (3 mg/mL) (Sigma-Aldrich Chemical, St. Louis, MO, USA) digestion at 16 °C on a rocker platform in a Ca^2+-free ND96 solution. Isolated stage V–VI oocytes were then maintained in ND96 solution containing Theophylline and Gentamicin at 16 °C.
(§1) Electrophysiological measurements.

[3] = target: T2, GIRK1/GIRK2 channels (Mus musculus, UniProt P48542+P63250); test: Two-electrode voltage-clamp, GIRK1/GIRK2 channels expressed in oocytes; type: cell-based; conditions: 100 μM OS, HK
T2 construct: expressed in transfected cells; host or cells: Xenopus laevis oocytes (cRNA injection)
T2 sequence (P63250 1-501): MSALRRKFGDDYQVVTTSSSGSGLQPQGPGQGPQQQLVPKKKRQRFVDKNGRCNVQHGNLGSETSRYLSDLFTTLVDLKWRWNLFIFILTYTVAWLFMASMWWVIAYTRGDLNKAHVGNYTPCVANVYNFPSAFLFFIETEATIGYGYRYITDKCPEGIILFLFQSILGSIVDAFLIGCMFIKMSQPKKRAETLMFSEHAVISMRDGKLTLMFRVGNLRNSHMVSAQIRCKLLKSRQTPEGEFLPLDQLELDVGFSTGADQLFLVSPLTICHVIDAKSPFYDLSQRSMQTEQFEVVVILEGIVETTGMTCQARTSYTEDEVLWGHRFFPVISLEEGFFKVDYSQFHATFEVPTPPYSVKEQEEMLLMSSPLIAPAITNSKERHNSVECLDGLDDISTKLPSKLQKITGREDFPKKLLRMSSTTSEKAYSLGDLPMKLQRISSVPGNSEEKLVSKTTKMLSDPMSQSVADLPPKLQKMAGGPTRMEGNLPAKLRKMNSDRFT
T2 sequence (P48542 1-425): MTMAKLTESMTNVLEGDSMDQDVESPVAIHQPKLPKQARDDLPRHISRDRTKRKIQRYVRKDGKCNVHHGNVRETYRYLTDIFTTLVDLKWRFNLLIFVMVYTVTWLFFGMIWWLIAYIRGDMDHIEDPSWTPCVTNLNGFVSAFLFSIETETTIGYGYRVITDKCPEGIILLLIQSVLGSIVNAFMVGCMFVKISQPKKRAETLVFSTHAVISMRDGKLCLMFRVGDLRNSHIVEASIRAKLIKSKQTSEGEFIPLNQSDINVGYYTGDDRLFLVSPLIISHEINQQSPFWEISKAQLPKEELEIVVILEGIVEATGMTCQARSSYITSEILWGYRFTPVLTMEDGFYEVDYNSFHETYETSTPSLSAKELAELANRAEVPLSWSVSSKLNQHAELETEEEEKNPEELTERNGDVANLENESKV
Text: In vitro transcription of cDNA clones.
Heterologous expression in Xenopus laevis oocytes.
as §1

[4] = target: T3, TRPV1 (Homo sapiens, UniProt Q8NER1); type: cell-based
T3 construct: expressed in transfected cells; host or cells: Xenopus laevis oocytes (cRNA injection)

[5] = test system: C57BL/6J mice; test: Home cage activity test; type: in vivo, mouse; conditions: i.p., OS 2 mg/kg
Experimental: Animal housing. Forty-eight Male C57BL/6J mice were purchased from Janvier Labs (Le Genest-Saint-Isle, France) and were time-specifically housed in a 12 h light-dark cycle (lights on at 7 am), with ad libitum water and food in conditioned rooms (22 °C, humidity ~60%).
Behavior assays. All mice were subjected to a behavioral test battery that consisted of several general performance tasks of locomotor activity, exploratory and anxiety-like behavior, and learning and memory. Mice were divided into four groups: Vehicle, OS (2 mg/kg), WIN55 (0.5 mg/kg), or OS + WIN. Each group consisted of 7–14 mice that received two i.p injections before each test, with a 10 min interval between each injection. Veh + Veh were injected with PBS. Veh + WIN were injected with PBS and WIN55. Veh + OS were injected with PBS and OS. OS + WIN were injected with OS and WIN55. PBS was used as vehicle as it was used for dilution of drugs. Tests were performed in the order described below after 10 min of the last injection, with a 24 h interval between each test.
Cage activity assessment: At P60, animals were moved to the cage activity room for one hour before injections for habituation.. The cage activity assessment consists of placing the mice in a transparent box which is placed between three infrared sensors (two on the cage’s side and one in its front) that count how many times the mice cross the infrared beams. The times of beams crossed in each 30 min were counted over a period of 24 h and used as a locomotor activity measurement. In addition, we also compared the total number of beams crossed during the day and night period. For this test, we used Veh (n = 10), OS (n = 9), WIN (n = 11), OS + WIN (n = 8).

[6] = target: MOR (Homo sapiens, UniProt P35372)
[7] = target: MRGPRX2 (Homo sapiens, UniProt Q96LB1)
Sequence of MRGPRX2 (Q96LB1 whole entry): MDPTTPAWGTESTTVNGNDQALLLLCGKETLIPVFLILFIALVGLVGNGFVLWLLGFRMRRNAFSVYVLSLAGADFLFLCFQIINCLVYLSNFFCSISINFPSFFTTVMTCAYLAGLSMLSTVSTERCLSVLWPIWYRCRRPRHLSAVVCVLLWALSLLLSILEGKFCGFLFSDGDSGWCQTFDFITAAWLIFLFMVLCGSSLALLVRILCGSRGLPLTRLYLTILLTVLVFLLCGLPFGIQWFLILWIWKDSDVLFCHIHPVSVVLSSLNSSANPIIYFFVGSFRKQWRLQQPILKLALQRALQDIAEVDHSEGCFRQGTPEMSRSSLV

T1 sequence (P34972 whole entry): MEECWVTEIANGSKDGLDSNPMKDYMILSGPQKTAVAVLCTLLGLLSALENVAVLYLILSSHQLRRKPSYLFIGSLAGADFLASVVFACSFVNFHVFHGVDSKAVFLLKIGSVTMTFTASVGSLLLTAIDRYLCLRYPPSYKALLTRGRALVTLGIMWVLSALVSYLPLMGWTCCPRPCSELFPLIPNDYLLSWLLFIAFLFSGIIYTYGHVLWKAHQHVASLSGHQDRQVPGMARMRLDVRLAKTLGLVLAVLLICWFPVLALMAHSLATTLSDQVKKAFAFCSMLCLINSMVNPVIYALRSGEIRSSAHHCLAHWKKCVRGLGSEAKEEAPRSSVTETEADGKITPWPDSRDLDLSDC
T3 sequence (Q8NER1 whole entry): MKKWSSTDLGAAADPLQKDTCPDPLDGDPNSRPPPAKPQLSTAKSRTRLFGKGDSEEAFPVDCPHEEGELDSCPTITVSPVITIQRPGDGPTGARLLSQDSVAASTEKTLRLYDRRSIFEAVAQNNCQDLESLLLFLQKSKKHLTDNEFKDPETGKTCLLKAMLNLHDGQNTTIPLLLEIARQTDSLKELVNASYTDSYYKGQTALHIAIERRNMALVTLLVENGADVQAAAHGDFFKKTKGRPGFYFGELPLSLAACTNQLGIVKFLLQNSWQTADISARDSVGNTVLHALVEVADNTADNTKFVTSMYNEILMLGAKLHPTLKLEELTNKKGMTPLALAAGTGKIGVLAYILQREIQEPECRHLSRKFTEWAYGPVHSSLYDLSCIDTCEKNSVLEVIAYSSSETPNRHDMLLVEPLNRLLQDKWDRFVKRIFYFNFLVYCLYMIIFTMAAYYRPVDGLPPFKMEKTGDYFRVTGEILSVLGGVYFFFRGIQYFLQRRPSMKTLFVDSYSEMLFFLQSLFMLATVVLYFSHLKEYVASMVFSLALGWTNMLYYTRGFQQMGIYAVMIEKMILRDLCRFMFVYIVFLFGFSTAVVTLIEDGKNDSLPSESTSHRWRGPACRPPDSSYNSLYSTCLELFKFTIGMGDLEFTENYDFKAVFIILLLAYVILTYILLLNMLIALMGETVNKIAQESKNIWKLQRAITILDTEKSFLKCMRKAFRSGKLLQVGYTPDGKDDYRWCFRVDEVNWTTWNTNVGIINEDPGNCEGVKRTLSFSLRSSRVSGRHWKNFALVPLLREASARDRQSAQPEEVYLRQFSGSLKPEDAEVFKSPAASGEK
Sequence of MOR (P35372 whole entry): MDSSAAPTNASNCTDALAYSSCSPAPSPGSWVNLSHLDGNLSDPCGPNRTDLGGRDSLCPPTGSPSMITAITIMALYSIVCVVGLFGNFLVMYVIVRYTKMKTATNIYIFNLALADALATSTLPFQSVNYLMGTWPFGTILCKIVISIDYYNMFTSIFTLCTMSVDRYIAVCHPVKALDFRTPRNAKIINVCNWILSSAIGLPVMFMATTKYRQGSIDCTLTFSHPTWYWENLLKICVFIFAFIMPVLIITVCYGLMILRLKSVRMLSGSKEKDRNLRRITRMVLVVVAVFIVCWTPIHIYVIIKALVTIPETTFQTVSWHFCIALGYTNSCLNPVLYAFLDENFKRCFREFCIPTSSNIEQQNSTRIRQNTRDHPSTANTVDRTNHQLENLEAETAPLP

CCCCCCCC/C=C\CCCCCCCC(=O)NCCc1c[nH]c2ccc(O)cc12 [OS, oleoyl serotonin]
Effect on WIN55,212-2-induced inward K+ currents (IK,WIN+OS) ([1]; 100 μM OS co-applied with 0.3 μM WIN55,212-2): inhibited | Effect of OS alone on IK,basal ([1]; 100 μM OS, 20–30 s, in HK): did not change the response of IK,basal | IC50 ([1]; IC50 of blocking CB2 receptor activated by WIN55,212-2, 0.03 μM WIN + OS): 14.8 µM | IC50 ([1]; IC50 of blocking CB2 receptor activated by WIN55,212-2, 0.1 μM WIN + OS): 13.2 µM | IC50 ([1]; IC50 of blocking CB2 receptor activated by WIN55,212-2, 0.3 μM WIN + OS): 12.1 µM | IC50 ([1]; IC50 of blocking CB2 receptor activated by WIN55,212-2, 1 μM WIN + OS): 10.4 µM | Mode of antagonism ([1]; against WIN55,212-2): non-competitively blocked | Activity on non-injected oocytes [2]: did not show activity | Effect on IK,basal [3]: did not significantly change IK,basal | Activity in selectivity screening [4]: did not show significant activity | Overall locomotion during the night in home cage vs control [5]: moved more in the cage compared to the control group | Cage activity (beam crossings) 2 h after the beginning of night phase ([5]; WIN 0.5 mg/kg, 21 h): notably increased cage activity | Activity in selectivity screening [6]: did not show significant activity | Activity in selectivity screening [7]: did not show significant activity
